Measured values: patent US20070173462A1, “Treatment of diseases associated with the use of antibiotics” (Optimer Pharmaceuticals, Inc., priority 2004, published 2007)
In brackets after ≈: the same amount, converted by molar mass. Like-named read-outs stand apart in the source and are kept apart here.

Assays:
C. difficile = test: MIC via agar dilution, 110 genetically distinct clinical isolates of C. difficile; format: cell-based
toxigenic C. difficile = test: Hamster model of clindamycin-induced Clostridium difficile associated diarrhea/colitis; format: in vivo, Syrian hamsters; conditions: oral treatment for 7 days; untreated infection uniformly fatal between days two and six
Experimental: Animals were treated with two oral doses of clindamycin at 100 mg/kg. Three days after the second dose of clindamycin, they were inoculated with toxigenic C. difficile spores. […] Animals were observed daily for the presence or absence of diarrhea. Necropsies were performed on some animals that died during the experiment, and cecal contents were assayed for C. difficile toxin A. Hamsters were monitored for 20 days, and the cumulative mortality during this period was recorded (FIG. 1).

With `Cc1ncc([N+](=O)[O-])n1CCO` [Metronidazole] the “Range (MIC)” value (C. difficile; 110 clinical isolates, agar dilution) was 0.025 to 0.5 µg/mL, the MIC (C. difficile; Clostridioides difficile, isolate ORG ID 61 5930, read-out: MIC) was 0.25 µg/mL (≈ 1.46 µM) and the MIC (C. difficile; Clostridioides difficile, isolate ORG ID 63 6029, read-out: MIC) was 0.25 µg/mL (≈ 1.46 µM). For the same compound, the MIC (C. difficile; Clostridioides difficile, isolate ORG ID 64 5940, read-out: MIC) was 0.25 µg/mL (≈ 1.46 µM), the MIC (C. difficile; Clostridioides difficile, isolate ORG ID 65 5967, read-out: MIC) was 0.25 µg/mL (≈ 1.46 µM) and the MIC (C. difficile; Clostridioides difficile, isolate ORG ID 67 6367, read-out: MIC) was 0.25 µg/mL (≈ 1.46 µM). It also gave an MIC (C. difficile; Clostridioides difficile, isolate ORG ID 69 6370, read-out: MIC) of 0.25 µg/mL (≈ 1.46 µM), an MIC (C. difficile; Clostridioides difficile, isolate ORG ID 70 6376, read-out: MIC) of 0.25 µg/mL (≈ 1.46 µM) and an MIC (C. difficile; Clostridioides difficile, isolate ORG ID 71 6379, read-out: MIC) of 0.25 µg/mL (≈ 1.46 µM). The MIC (C. difficile; Clostridioides difficile, isolate ORG ID 72 6380, read-out: MIC) was 0.25 µg/mL (≈ 1.46 µM), the MIC (C. difficile; Clostridioides difficile, isolate ORG ID 73 6382, read-out: MIC) was 0.25 µg/mL (≈ 1.46 µM) and the MIC (C. difficile; Clostridioides difficile, isolate ORG ID 76 6389, read-out: MIC) was 0.25 µg/mL (≈ 1.46 µM). The MIC (C. difficile; Clostridioides difficile, isolate ORG ID 78 6392, read-out: MIC) was 0.03 µg/mL (≈ 0.175 µM), the MIC (C. difficile; Clostridioides difficile, isolate ORG ID 82 6329, read-out: MIC) was 0.03 µg/mL (≈ 0.175 µM) and the MIC (C. difficile; Clostridioides difficile, isolate ORG ID 84 6331, read-out: MIC) was 0.25 µg/mL (≈ 1.46 µM). It also gave an MIC (C. difficile; Clostridioides difficile, isolate ORG ID 88 6335, read-out: MIC) of 0.25 µg/mL (≈ 1.46 µM), an MIC (C. difficile; Clostridioides difficile, isolate ORG ID 89 6336, read-out: MIC) of 0.5 µg/mL (≈ 2.92 µM) and an MIC (C. difficile; Clostridioides difficile, isolate ORG ID 94 6343, read-out: MIC) of 0.06 µg/mL (≈ 0.351 µM). It also gave an MIC (C. difficile; Clostridioides difficile, isolate ORG ID 98 6350, read-out: MIC) of 0.5 µg/mL (≈ 2.92 µM), an MIC (C. difficile; Clostridioides difficile, isolate ORG ID 100 6353, read-out: MIC) of 0.25 µg/mL (≈ 1.46 µM) and an MIC (C. difficile; Clostridioides difficile, isolate ORG ID 101 6354, read-out: MIC) of 0.06 µg/mL (≈ 0.351 µM). It also gave an MIC (C. difficile; Clostridioides difficile, isolate ORG ID 104 6060, read-out: MIC) of 0.25 µg/mL (≈ 1.46 µM), an MIC (C. difficile; Clostridioides difficile, isolate ORG ID 106 6078, read-out: MIC) of 0.25 µg/mL (≈ 1.46 µM) and an MIC (C. difficile; Clostridioides difficile, isolate ORG ID 115 5985, read-out: MIC) of 0.25 µg/mL (≈ 1.46 µM). For the same compound, the MIC (C. difficile; Clostridioides difficile, isolate ORG ID 120 6057, read-out: MIC) was 0.25 µg/mL (≈ 1.46 µM), the MIC (C. difficile; Clostridioides difficile, isolate ORG ID 121 6072, read-out: MIC) was 0.25 µg/mL (≈ 1.46 µM) and the MIC (C. difficile; Clostridioides difficile, isolate ORG ID 122 6111, read-out: MIC) was 0.25 µg/mL (≈ 1.46 µM). It also gave an MIC (C. difficile; Clostridioides difficile, isolate ORG ID A1 1535, read-out: MIC) of 0.25 µg/mL (≈ 1.46 µM), an MIC (C. difficile; Clostridioides difficile, isolate ORG ID AH1 3430, read-out: MIC) of 0.25 µg/mL (≈ 1.46 µM) and an MIC (C. difficile; Clostridioides difficile, isolate ORG ID BE1 4307, read-out: MIC) of 0.25 µg/mL (≈ 1.46 µM). It also gave an MIC (C. difficile; Clostridioides difficile, isolate ORG ID BH1 4506, read-out: MIC) of 0.06 µg/mL (≈ 0.351 µM), an MIC (C. difficile; Clostridioides difficile, isolate ORG ID BN1 1322, read-out: MIC) of 0.25 µg/mL (≈ 1.46 µM) and an MIC (C. difficile; Clostridioides difficile, isolate ORG ID BV1 1183, read-out: MIC) of 0.25 µg/mL (≈ 1.46 µM). For the same compound, the MIC (C. difficile; Clostridioides difficile, isolate ORG ID BX1 4271, read-out: MIC) was 0.25 µg/mL (≈ 1.46 µM), the MIC (C. difficile; Clostridioides difficile, isolate ORG ID CJ1 893, read-out: MIC) was 0.025 µg/mL (≈ 0.146 µM) and the MIC (C. difficile; Clostridioides difficile, isolate ORG ID CN1 667, read-out: MIC) was 0.25 µg/mL (≈ 1.46 µM). For the same compound, the MIC (C. difficile; Clostridioides difficile, isolate ORG ID CP1 5491, read-out: MIC) was 0.25 µg/mL (≈ 1.46 µM), the MIC (C. difficile; Clostridioides difficile, isolate ORG ID D1 1360, read-out: MIC) was 0.25 µg/mL (≈ 1.46 µM) and the MIC (C. difficile; Clostridioides difficile, isolate ORG ID J1 5971, read-out: MIC) was 0.25 µg/mL (≈ 1.46 µM). It also gave an MIC (C. difficile; Clostridioides difficile, isolate ORG ID K1 4305, read-out: MIC) of 0.25 µg/mL (≈ 1.46 µM), an MIC (C. difficile; Clostridioides difficile, isolate ORG ID R6 6015, read-out: MIC) of 0.25 µg/mL (≈ 1.46 µM) and an MIC (C. difficile; Clostridioides difficile, isolate ORG ID W1 3931, read-out: MIC) of 0.5 µg/mL (≈ 2.92 µM). For the same compound, the MIC90 (C. difficile; Clostridioides difficile, 110 clinical isolates, agar dilution) was 0.25 µg/mL (≈ 1.46 µM), the MIC (C. difficile; Clostridioides difficile, 110 clinical isolates, agar dilution, read-out: Geometric Mean (MIC)) was 0.15 µg/mL (≈ 0.876 µM) and the “protection from infection (cumulative mortality over 20 days)” value (toxigenic C. difficile) was “protected the animals from infection”.
